In ChEMBL document CHEMBL1833893, “Synthesis and anticonvulsant activity of new 1-[2-oxo-2-(4-phenylpiperazin-1-yl)ethyl]pyrrolidine-2,5-diones” (Bioorg Med Chem Lett, 2011):
Activity calls are given as the source filed them. The calls are words filed in the database; no cut-off is given here.

Columns and labels:
Mus musculus [1] = assay: Neurotoxicity in albino CF1 mouse assessed as motor impairment at 300 mg/kg, ip after 0.5 hrs by rotarod test; format: toxicity, organism-based; set-up: dose 300 mg/kg, route intraperitoneal; details: in vivo
Mus musculus [2] = assay: Anticonvulsant activity in ip dosed albino CF1 mouse assessed as protection against maximal electroshock-induced seizures after 4 hrs; format: functional; details: read-out: MED
Mus musculus [3] = assay: Anticonvulsant activity in albino CF1 mouse assessed as protection against maximal electroshock-induced seizures at 300 mg/kg, ip after 0.5 hrs; format: functional, organism-based; set-up: dose 300 mg/kg
Mus musculus [4] = assay: Anticonvulsant activity in albino CF1 mouse assessed as protection against subcutaneous pentylenetetrazole-induced seizures at 300 mg/kg, ip after 4 hrs; format: functional, organism-based; set-up: dose 300 mg/kg
Mus musculus [5] = assay: Neurotoxicity in albino CF1 mouse assessed as motor impairment at 300 mg/kg, ip after 4 hrs by rotarod test; format: toxicity, organism-based; set-up: dose 300 mg/kg, route intraperitoneal; details: in vivo
Mus musculus [6] = assay: Anticonvulsant activity in albino CF1 mouse assessed as protection against subcutaneous pentylenetetrazole-induced seizures at 300 mg/kg, ip after 0.5 hrs; format: functional, organism-based; set-up: dose 300 mg/kg
Mus musculus [7] = assay: Anticonvulsant activity in ip dosed albino CF1 mouse assessed as protection against maximal electroshock-induced seizures after 0.5 hrs; format: functional; details: read-out: MED
Rattus norvegicus [8] = assay: Anticonvulsant activity in Sprague-Dawley rat assessed as protection against maximal electroshock-induced seizures at 30 mg/kg, po after 0.5 hrs; format: functional
Mus musculus [9] = assay: Anticonvulsant activity in albino CF1 mouse assessed as protection against electrically-induced seizure at 100 mg/kg, ip after 0.5 hrs by 6Hz psychomotor seizure test; format: functional
Mus musculus [10] = assay: Anticonvulsant activity in albino CF1 mouse assessed as protection against electrically-induced seizure at 100 mg/kg, ip after 1 hr by 6Hz psychomotor seizure test; format: functional
Rattus norvegicus [11] = assay: Anticonvulsant activity in Sprague-Dawley rat assessed as protection against maximal electroshock-induced seizures at 30 mg/kg, po after 4 hrs; format: functional
Rattus norvegicus [12] = assay: Anticonvulsant activity in Sprague-Dawley rat assessed as protection against maximal electroshock-induced seizures at 30 mg/kg, po after 2 hrs; format: functional
Rattus norvegicus [13] = assay: Anticonvulsant activity in Sprague-Dawley rat assessed as protection against maximal electroshock-induced seizures at 30 mg/kg, po after 1 hr; format: functional
Mus musculus [14] = assay: Anticonvulsant activity in albino CF1 mouse assessed as protection against electrically-induced seizure at 100 mg/kg, ip after 2 hrs by 6Hz psychomotor seizure test; format: functional
Mus musculus [15] = assay: Anticonvulsant activity in albino CF1 mouse assessed as protection against electrically-induced seizure at 100 mg/kg, ip after 4 hrs by 6Hz psychomotor seizure test; format: functional
Mus musculus [16] = assay: Neurotoxicity in ip dosed albino CF1 mouse assessed as minimum dose required to cause motor impairment after 0.5 hrs by rotarod test; format: toxicity, organism-based; details: in vivo
Mus musculus [17] = assay: Anticonvulsant activity in albino CF1 mouse assessed as protection against electrically-induced seizure at 100 mg/kg, ip after 0.25 hrs by 6Hz psychomotor seizure test; format: functional
Mus musculus [18] = assay: Anticonvulsant activity in ip dosed albino CF1 mouse assessed as protection against subcutaneous pentylenetetrazole-induced seizures after 0.5 hrs; format: functional; details: albino CF1, 0.5 h, read-out: MED
Mus musculus [19] = assay: Neurotoxicity in ip dosed albino CF1 mouse assessed as minimum dose required to cause motor impairment after 4 hrs by rotarod test; format: toxicity, organism-based; details: in vivo
Rattus norvegicus [20] = assay: Anticonvulsant activity in Sprague-Dawley rat assessed as protection against maximal electroshock-induced seizures at 30 mg/kg, po after 0.25 hrs; format: functional
Mus musculus [21] = assay: Anticonvulsant activity in albino CF1 mouse assessed as protection against maximal electroshock-induced seizures at 300 mg/kg, ip after 4 hrs; format: functional, organism-based; set-up: dose 300 mg/kg
Mus musculus [22] = assay: Anticonvulsant activity in ip dosed albino CF1 mouse assessed as protection against subcutaneous pentylenetetrazole-induced seizures after 4 hrs; format: functional; details: albino CF1, 4 h, read-out: MED

| Structure (SMILES) | Activity (Mus musculus [1]) | minimal effective dose (Mus musculus [2]) [mg/kg] | Activity (Mus musculus [4]) | Activity (Mus musculus [5]) | Activity (Mus musculus [6]) | minimal effective dose (Mus musculus [7]) [mg/kg] | Activity (Rattus norvegicus [8]) | Activity (Mus musculus [9]; route intraperitoneal) [%] | Activity (Mus musculus [10]; route intraperitoneal) [%] | Activity (Rattus norvegicus [11]) | Activity (Rattus norvegicus [12]) | Activity (Rattus norvegicus [13]) | MTC (Mus musculus [16]) [mg/kg] | Activity (Mus musculus [17]; route intraperitoneal) [%] | minimal effective dose (Mus musculus [18]) [mg/kg] | Activity (Rattus norvegicus [20]) | Activity (Mus musculus [21]) | also measured |
| --- | --- | --- | --- | --- | --- | --- | --- | --- | --- | --- | --- | --- | --- | --- | --- | --- | --- | --- |
| CCC1(CC)CC(=O)N(CC(=O)N2CCN(c3ccc(Cl)cc3)CC2)C1=O | Non-toxic | 300 | inactive | Non-toxic | inactive | – | – | – | – | – | – | – | – | – | – | – | – | Activity (Mus musculus [3]): inactive |
| CC1(C)CC(=O)N(CC(=O)N2CCN(c3cccc(C(F)(F)F)c3)CC2)C1=O | Non-toxic | 100 | inactive | Non-toxic | inactive | 100 | inactive | 75 | 75 | inactive | inactive | inactive | – | – | – | – | – | – |
| CC1CC(=O)N(CC(=O)N2CCN(c3cccc(C(F)(F)F)c3)CC2)C1=O (stereo not drawn) | – | 100 | inactive | – | – | 100 | inactive | 100 | 100 | – | – | – | 300 | 100 | 300 | inactive | – | Activity (Mus musculus [14]; route intraperitoneal): 75%; Activity (Mus musculus [15]): inactive; MTC (Mus musculus [19]): 300 mg/kg |
| CC1CC(=O)N(CC(=O)N2CCN(c3ccc(F)cc3)CC2)C1=O (stereo not drawn) | Non-toxic | 100 | inactive | Non-toxic | inactive | 300 | – | 75 | 75 | – | – | – | – | – | – | – | – | Activity (Mus musculus [15]): inactive |
| CC1CC(=O)N(CC(=O)N2CCN(c3ccc(Cl)cc3)CC2)C1=O (stereo not drawn) | Non-toxic | 100 | inactive | – | inactive | 300 | 75% | – | 75 | 75% | 75% | 75% | – | 75 | – | – | – | MTC (Mus musculus [19]): 300 mg/kg |
| O=C(CN1C(=O)CCC1=O)N1CCN(c2ccccc2)CC1 | Non-toxic | – | inactive | Non-toxic | inactive | 300 | – | – | – | – | – | – | – | – | – | – | inactive | – |
| CCC1(CC)CC(=O)N(CC(=O)N2CCN(c3cccc(C(F)(F)F)c3)CC2)C1=O | Non-toxic | 300 | inactive | Non-toxic | inactive | 300 | – | – | – | – | – | – | – | – | – | – | – | – |
| CC1(C)CC(=O)N(CC(=O)N2CCN(c3ccccc3F)CC2)C1=O | Non-toxic | – | inactive | Non-toxic | inactive | 300 | – | – | – | – | – | – | – | – | – | – | inactive | – |
| CC1CC(=O)N(CC(=O)N2CCN(c3ccccc3Cl)CC2)C1=O (stereo not drawn) | – | – | inactive | Non-toxic | – | 300 | inactive | 100 | – | inactive | inactive | inactive | 300 | 100 | 300 | 75% | inactive | Activity (Mus musculus [14]): inactive; Activity (Mus musculus [15]): inactive |
| O=C(CN1C(=O)CCC1=O)N1CCN(c2ccccc2Cl)CC1 | – | – | inactive | Non-toxic | – | 100 | inactive | – | – | inactive | inactive | inactive | 300 | 75 | 300 | inactive | inactive | Activity (Mus musculus [14]): inactive; Activity (Mus musculus [15]): inactive; Activity (Mus musculus [10]): inactive |
| CC1CC(=O)N(CC(=O)N2CCN(c3ccccc3)CC2)C1=O (stereo not drawn) | – | – | – | Non-toxic | – | 300 | – | – | – | – | – | – | 300 | – | 300 | – | inactive | minimal effective dose (Mus musculus [22]): 300 mg/kg |
| O=C(CN1C(=O)CCC1=O)N1CCN(c2ccccc2F)CC1 | – | – | inactive | Non-toxic | – | 300 | – | – | – | – | – | – | 300 | – | 300 | – | – | – |
| O=C(CN1C(=O)CCC1=O)N1CCN(c2ccc(F)cc2)CC1 | Non-toxic | 300 | inactive | Non-toxic | inactive | 300 | – | – | – | – | – | – | – | – | – | – | – | – |
| O=C(CN1C(=O)CCC1=O)N1CCN(c2ccc(Cl)cc2)CC1 | Non-toxic | 300 | inactive | – | – | 100 | inactive | – | – | – | – | inactive | – | – | 300 | inactive | – | Activity (Mus musculus [9]): inactive; Activity (Mus musculus [14]): inactive; Activity (Mus musculus [15]): inactive; Activity (Mus musculus [17]): inactive; Activity (Mus musculus [10]): inactive; MTC (Mus musculus [19]): 300 mg/kg |
| CC1(C)CC(=O)N(CC(=O)N2CCN(c3ccccc3Cl)CC2)C1=O | Non-toxic | – | inactive | Non-toxic | inactive | 300 | – | – | – | – | – | – | – | – | – | – | inactive | – |
| CC1CC(=O)N(CC(=O)N2CCN(c3ccccc3F)CC2)C1=O (stereo not drawn) | – | 300 | inactive | Non-toxic | inactive | 300 | – | – | – | – | – | – | 300 | – | – | – | – | – |
| CC1(C)CC(=O)N(CC(=O)N2CCN(c3ccc(Cl)cc3)CC2)C1=O | – | 100 | inactive | Non-toxic | – | 100 | inactive | 100 | 100 | 100% | – | inactive | 300 | 100 | 300 | inactive | – | – |
| O=C1NC(=O)C(c2ccccc2)(c2ccccc2)N1 [PHENYTOIN] | – | 30 | inactive | – | inactive | 30 | 100% | – | – | 75% | 75% | 75% | 100 | – | – | – | – | MTC (Mus musculus [19]): 100 mg/kg |
| CCC1(CC)CC(=O)N(CC(=O)N2CCN(c3ccccc3Cl)CC2)C1=O | – | – | inactive | Non-toxic | inactive | 300 | – | – | – | – | – | – | 300 | – | – | – | inactive | – |
| CCC1(CC)CC(=O)N(CC(=O)N2CCN(c3ccccc3)CC2)C1=O | Non-toxic | – | inactive | Non-toxic | inactive | – | – | – | – | – | – | – | – | – | – | – | inactive | Activity (Mus musculus [3]): inactive |
| CCC1(C)CC(=O)NC1=O (stereo not drawn) [ETHOSUXIMIDE] | Non-toxic | – | – | Non-toxic | – | – | – | – | – | – | – | – | – | – | 100 | – | inactive | Activity (Mus musculus [3]): inactive; minimal effective dose (Mus musculus [22]): 300 mg/kg |
| CC1(C)CC(=O)N(CC(=O)N2CCN(c3ccc(F)cc3)CC2)C1=O | – | 100 | inactive | Non-toxic | – | 100 | inactive | 100 | 75 | inactive | inactive | inactive | 300 | 100 | 300 | inactive | – | – |
| O=C(CN1C(=O)CCC1=O)N1CCN(c2cccc(C(F)(F)F)c2)CC1 | – | 100 | – | – | inactive | 100 | – | 100 | 75 | 75% | 75% | 75% | 100 | 100 | – | inactive | – | Activity (Mus musculus [14]; route intraperitoneal): 100%; Activity (Mus musculus [15]; route intraperitoneal): 75%; minimal effective dose (Mus musculus [22]): 300 mg/kg; MTC (Mus musculus [19]): 300 mg/kg |
